Literature values as cited in US9012464B2, “Salts and polymorphic forms of Afatinib” (Ratiopharm GmbH, priority 2010, dated 2015).

Settings: acid compound used for forming afatinib salts

Q: Which pKa1 does the source give for `O=S(=O)(O)c1ccccc1` [Benzenesulphonic acid] here?
A: 0.7
